Source: patent publication US9079152B2, “Encapsulated essential oils” (BEN GURION UNIVERSITY OF THE NEGEV RESEARCH AND DEVELOPMENT …, priority 2004, dated 2015)

Test system: mosquito larvae
Assay: Comparison tests of cyromazine for larvicidal activity
Assay type: in vivo
Details: 0.5 g/m^2 of cyromazine; after 3 days
Protocol: Tests with cyromazine, an insect growth regulator produced by Novartis, was tested for larvicidal activity, either as such or in encapsulated form An effective concentration of 0.5 g/m^2 of cyromazine gave 60% mortality after 3 days, and the best sustained-release formulation gave. 100% mortality after 8 days.

SMILES: Nc1nc(N)nc(NC2CC2)n1 [cyromazine]
- mortality: 60%
